Data: patent EP2792360A1, “(1aR,12bS)-8-cyclohexyl-11-fluoro-N-((1-methylcyclopropyl)sulfonyl)-1a-((3-methyl-3,8-diazabicyclo[3.2.1]oct-8-yl)carbonyl)-1,1a,2,2b-tetrahydrocyclopropa[d]indolo[2,1-a][2]benzazepine-5-carboxamide for use in treating HCV” (IP Gesellschaft für Management mbH, priority 2013, dated 2014)
Entries after “also recorded” stand apart in the source; their conditions may differ. Counter-ions that a name gives are not always drawn.

Assay: Salt selection screens of Formula V free base (organic solvents, aqueous, concentrated acids; XRPD)
Assay type: physicochemical
Conditions: for XRPD post 1 day maturation / XRPD post 4 days maturation: HCl salt screen, HCl 1.1 equivalents
Method: Example 8: Salt Selection: Preparation of the hydrochloride salt was performed in the 20 solvents used for the solubility screen in order to select the optimal solvents for the salt screen. Formula V free base (ca. 10 mg) was suspended in the selected solvents (50 volumes; 500 µl) with stirring at 40°C. HCl (1.1 equivalents; […] in THF) was added, and the temperature was maintained for 30 minutes. […] The experiments were left cycling for further three days. […] Table 2. Results of HCl salt screen from 20 different solvents
Formula V free base (ca. 30 mg) was suspended in selected solvents (THF, nitromethane, acetonitrile and MEK; 50 volumes, 1.5 mL) at 50°C with stirring. The corresponding acid (1 equivalent) was added and the samples were stirred for 30 minutes, prior to ramping at 1 °C -min_1 to 25°C. The samples were placed in a shaker and subjected to heating/cooling cycles, between room temperature and 50°C, with four hours at each condition. Table 3. Input materials used for the salt screen
Further solvent (25 volumes) was added, and the suspensions were allowed to cycle for four more days. […] The samples were stored in a shaker and subjected to heating/cooling cycles, between room temperature and 50°C, with four hours at each condition for one week. […] Water (10% for MeCN, and 5% for THF, MEK and nitromethane, based on ca. 1.5 mL solvent) was added and the samples were cycled for a further 5 days. […] Table 4. XRPD results from the salt screen in acetonitrile.
An aqueous screen was performed. […] Table 11. Aqueous salt screen
The preparation of salts was conducted by dissolution in concentrated aqueous inorganic acids followed by precipitation with THF. Two procedures were performed, on 10 mg or 50 mg scale, investigating the effect of the order of addition of THF on the product produced.
Procedure A: Formula V free base (ca. 10 mg) was dissolved in the corresponding concentrated acid (50 µl) with stirring at room temperature and was added dropwise over THF (500 µl). Samples using HBr and HCl yielded solids and were shaken for 10 minutes and the solid was vacuum filtered, and dried under suction. H3PO4 yielded a solution that was subjected to heating/cooling cycles between room temperature and 50°C, four hours under each condition for 7 days. Procedure B: Formula V free base (ca. 50 mg) was dissolved in the corresponding concentrated acids (250 µl) with stirring at room temperature. THF (2.5 mL) was added dropwise to the solutions, and precipitation started. The samples were shaken for 30 minutes before being placed at 2-8°C for ca. 16 hours. HBr and HCl produced solids, which were vacuum filtered, washed with THF, dried under suction and under vacuum at 40°C for 16 hours. Table 13. Results from the salt screen from concentrated aqueous acids

[1] = HBr salt obtained in the salt screen, Acetonitrile
[2] = HBr salt obtained in the salt screen, THF
[3] = salts from concentrated acids, second Details column (presumably Procedure B), listed as HBr salt
[4] = solvent 1-4-Dioxane (entry -13)
[5] = solvent Acetonitrile (entry -04)
[6] = salt screen from concentrated aqueous acids, Formula V free base, Procedure A
[7] = salt screen from concentrated aqueous acids, Formula V free base, Procedure B
[8] = salts from concentrated acids, second Details column (presumably Procedure B), listed as HCl salt

Nc1nc2cc(-c3ccc4ncc(C(=O)N5CCOCC5)n4c3)ccc2o1 [{drug5b}, (6-(2-aminobenzo[d]oxazol-5-yl)imidazo[1,2-a]pyridin-3-yl)(morpholino)methanone]
Ion Chromatography (HBr salt from aqueous screen): 0.8 eqs Cl
XRPD (vacuum dried) (HBr salt from aqueous screen): HBr Pattern 3
Ion Chromatography [1]: 1.1 eqs C 1
XRPD (vacuum dried) [1]: HBr Pattern 1, slight evidence of FB
XRPD (vacuum dried) (HBr salt obtained in the salt screen, Nitromethane): HBr Pattern 1, slight evidence of FB
Ion Chromatography [2]: 0.8 eqs Cl
XRPD (vacuum dried) [2]: HBr Pattern 1
Ion Chromatography (HBr salts from concentrated acids, first Details column (presumably Procedure A)): 1.7 eqs Br
Ion Chromatography (HBr salts from concentrated acids, second Details column (presumably Procedure B)): 1.8 eqs Br
XRPD (air dried) (salts from concentrated acids, first Details column (presumably Procedure A), listed as HBr salt): HBr Pattern 2
XRPD (air dried) [3]: HBr Pattern 4
XRPD (vacuum dried) [3]: HBr Pattern 4; also recorded: Slight changes, more peaks

Nc1nc2cc(-c3ccc4ncc(C(=O)N5CCOCC5)n4c3)ccc2o1 [compound of Formula V, (6-(2-aminobenzo[d]oxazol-5-yl)imidazo[1,2-a]pyridin-3-yl)(morpholino)methanone]
XRPD post 1 day maturation [4]: New peaks free base (loss of crystallinity)
XRPD post 4 days maturation [4]: Amorphous
XRPD post 1 day maturation (solvent Acetone (entry -05)): New peaks + free base
XRPD post 4 days maturation (solvent Acetone (entry -05)): Free base
XRPD post 1 day maturation [5]: New peaks + free base
XRPD post 4 days maturation [5]: HCl Pattern 1
XRPD post 1 day maturation (solvent BuOAc (entry -16)): New peaks + free base (loss of crystallinity)
XRPD post 4 days maturation (solvent BuOAc (entry -16)): New peaks + free base (loss of crystallinity)
XRPD post 1 day maturation (solvent DCM (entry -17)): New peaks + free base (loss of crystallinity)
XRPD post 4 days maturation (solvent DCM (entry -17)): New peaks + free base (loss of crystallinity)
XRPD post 1 day maturation (solvent DIPE (entry -10)): New peaks + free base
XRPD post 4 days maturation (solvent DIPE (entry -10)): New peaks + free base
XRPD post 1 day maturation (solvent EtOAc (entry -08)): New peaks + free base (loss of crystallinity)
XRPD post 4 days maturation (solvent EtOAc (entry -08)): New peaks + free base
XRPD post 1 day maturation (solvent Ethanol (entry -02)): New peaks + free base (loss of crystallinity)
XRPD post 4 days maturation (solvent Ethanol (entry -02)): Amorphous
XRPD post 1 day maturation (solvent IPA (entry -03)): New peaks + free base (loss of crystallinity)
XRPD post 4 days maturation (solvent IPA (entry -03)): Amorphous
XRPD post 1 day maturation (solvent IPAc (entry -09)): New peaks + free base (loss of crystallinity)
XRPD post 4 days maturation (solvent IPAc (entry -09)): New peaks + free base
XRPD post 1 day maturation (solvent MEK (entry -06)): New peaks + free base
XRPD post 4 days maturation (solvent MEK (entry -06)): HCl Pattern 1
XRPD post 1 day maturation (solvent MIBK (entry -07)): New peaks + free base
XRPD post 4 days maturation (solvent MIBK (entry -07)): New peaks + free base
XRPD post 1 day maturation (solvent MeNO2 (entry -14)): HCl Pattern I
XRPD post 1 day maturation (solvent Methanol (entry -01)): New peaks + free base (loss of crystallinity)
XRPD post 4 days maturation (solvent Methanol (entry -01)): Loss of crystallinity
XRPD post 1 day maturation (solvent TBME (entry -11)): New peaks + free base
XRPD post 4 days maturation (solvent TBME (entry -11)): New peaks + free base
XRPD post 1 day maturation (solvent THF (entry -12)): New peaks + free base (loss of crystallinity)
XRPD post 4 days maturation (solvent THF (entry -12)): HCl Pattern 1
XRPD post 1 day maturation (solvent Toluene (entry -15)): New peaks + free base
XRPD post 4 days maturation (solvent Toluene (entry -15)): New peaks + free base
XRPD post 1 day maturation (solvent tBuOH (entry -18)): New peaks + free base
XRPD post 4 days maturation (solvent tBuOH (entry -18)): Free base

Cl [HCl]
Observations after adda of THF [6]: White suspension
Observations after adda of THF [7]: White suspension

Br [HBr]
Observations after adda of THF [6]: While suspension
Observations after adda of THF [7]: White suspension

Nc1nc2cc(-c3ccc4ncc(C(=O)N5CCOCC5)n4c3)ccc2o1 [{drug5a}, (6-(2-aminobenzo[d]oxazol-5-yl)imidazo[1,2-a]pyridin-3-yl)(morpholino)methanone]
Ion Chromatography (HCl salt from nitromethane): 0.8 eqs Cl
XRPD (vacuum dried) (HCl salt from nitromethane): HCl Pattern 1
Ion Chromatography (HCl salts from concentrated acids, first Details column (presumably Procedure A)): 1.6 eqs Cl
Ion Chromatography (HCl salts from concentrated acids, second Details column (presumably Procedure B)): 1.7 eqs Cl
XRPD (air dried) (salts from concentrated acids, first Details column (presumably Procedure A), listed as HCl salt): HCl Pattern 2
XRPD (air dried) [8]: HCl Pattern 2
XRPD (vacuum dried) [8]: HCl Pattern 2; also recorded: Slight changes, more peaks

O=P(O)(O)O [Compound H3PO4]
Maturation [6]: Oil
Observations after adda of THF [6]: Solution
Observations after adda of THF [7]: Oil
